In ChEMBL document CHEMBL1123303, “Synthesis of 2-(4-substituted-1-piperazinyl)benzimidazoles as H1-antihistaminic agents” (J Med Chem, 1986):

Columns and labels:
Histamine H1 receptor = Histamine H1 receptor (Cavia porcellus, UniProt P31389); test: In vitro inhibition of histamine-induced contractions in guinea pig ileum; assay type: functional, tissue-based
[1] = In vivo for the inhibition of histamine-induced mortality in guinea pig; assay type: functional; conditions: Cavia porcellus

Histamine H1 receptor, sequence (P31389 whole entry): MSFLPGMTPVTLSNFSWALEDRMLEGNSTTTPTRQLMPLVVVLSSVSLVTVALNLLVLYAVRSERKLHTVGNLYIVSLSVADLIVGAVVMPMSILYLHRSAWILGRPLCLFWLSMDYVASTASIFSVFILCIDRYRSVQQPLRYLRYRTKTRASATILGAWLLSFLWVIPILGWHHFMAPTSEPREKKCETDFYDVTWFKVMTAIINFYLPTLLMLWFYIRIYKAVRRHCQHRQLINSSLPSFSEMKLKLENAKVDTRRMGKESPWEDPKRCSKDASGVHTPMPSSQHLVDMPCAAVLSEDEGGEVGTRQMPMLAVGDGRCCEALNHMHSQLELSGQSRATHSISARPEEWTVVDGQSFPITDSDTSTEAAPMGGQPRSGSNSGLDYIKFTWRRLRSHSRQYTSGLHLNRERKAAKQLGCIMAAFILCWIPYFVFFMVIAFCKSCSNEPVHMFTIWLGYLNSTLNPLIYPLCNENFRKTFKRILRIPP

Row | SMILES | IC50 (Histamine H1 receptor) [nM] | ED50 [1] [mg/kg]
1 | CCCn1c(N2CCN(C)CC2)nc2ccccc21 | 380 | –
2 | CN1CCN(c2nc3ccccc3n2CCO)CC1 | 410 | –
3 | CCCCN1CCCN(c2nc3ccccc3n2CCOCC)CC1 | 8.4 | 0.12
4 | CCOCCn1c(N2CCNCC2)nc2ccccc21 | 11 | –
5 | CN1CCN(c2nc3ccccc3n2CCc2ccccc2)CC1 | 240 | –
6 | CCSCCn1c(N2CCN(C)CC2)nc2ccccc21 | 19 | 0.28
7 | CCOCCn1c(N2CCN(Cc3ccccc3)CC2)nc2ccccc21 | 27 | 0.039
8 | CN1CCN(c2nc3ccccc3[nH]2)CC1 | > 3000 | –
9 | CCOCCn1c(N2CCN(C(c3ccccc3)c3ccccc3)CC2)nc2ccccc21 | > 3000 | –
10 | CCCN1CCCN(c2nc3ccccc3n2CCOCC)CC1 | 8.4 | > 0.1
11 | CC(C)CCn1c(N2CCN(C)CC2)nc2ccccc21 | 1400 | –
12 | CCCCOCCn1c(N2CCN(C)CC2)nc2ccccc21 | 38 | > 0.1
13 | COCCCn1c(N2CCN(C)CC2)nc2ccccc21 | 860 | > 0.1
14 | CCOCCn1c(N2CCCN(Cc3ccccc3)CC2)nc2ccccc21 | 15 | > 0.1
15 | CCCCN1CCN(c2nc3ccccc3n2CCOCC)CC1 | 15 | > 0.1
16 | CCCOCCn1c(N2CCN(C)CC2)nc2ccccc21 | 20 | –
17 | CCOCCn1c(N2CCN(c3ccccc3)CC2)nc2ccccc21 | > 10000 | –
18 | C=CCOCCn1c(N2CCN(C)CC2)nc2ccccc21 | 17 | –
19 | CCOCCn1c(N2CCCN(CC)CC2)nc2ccccc21 | 16 | 0.032
20 | CN1CCCN(c2nc3ccccc3n2CCOc2ccccc2)CC1 | 9.1 | –
21 | CCCOCCn1c(N2CCCN(C)CC2)nc2ccccc21 | 16 | –
22 | CCCCCCN1CCN(c2nc3ccccc3n2CCOCC)CC1 | 8.6 | > 0.1
23 | CN1CCN(c2nc3ccccc3n2-c2ccccc2)CC1 | 760 | –
24 | CCCCCCCCCCn1c(N2CCN(C)CC2)nc2ccccc21 | 4200 | –
25 | CN1CCN(c2nc3ccccc3n2CCOCCO)CC1 | 42 | 0.051
26 | C=COCCn1c(N2CCN(C)CC2)nc2ccccc21 | 10 | 0.023
27 | CCCSCn1c(N2CCN(C)CC2)nc2ccccc21 | 68 | –

Row | SMILES | IC50 (Histamine H1 receptor) [nM] | ED50 [1] [mg/kg]
28 | CCOCCn1c(N2CCN(C=O)CC2)nc2ccccc21 | > 3000 | –
29 | CN1CCN(c2nc3ccccc3n2CCOCc2ccccc2)CC1 | 430 | > 0.1
30 | CCOCCn1c(N2CCN(CCc3ccccc3)CC2)nc2ccccc21 | 31 | > 0.1
31 | CCCOCn1c(N2CCN(C)CC2)nc2ccccc21 | 18 | > 0.1
32 | CCCC(C)n1c(N2CCN(C)CC2)nc2ccccc21 (configuration not stated) | 1400 | –
33 | CCOCCn1c(N2CCCNCC2)nc2ccccc21 | 25 | 0.041
34 | CCCCn1c(N2CCN(C)CC2)nc2ccccc21 | 50 | –
35 | CCSCCCn1c(N2CCN(C)CC2)nc2ccccc21 | 530 | –
36 | CN1CCN(c2nc3ccccc3n2C)CC1 | 320 | –
37 | COCCn1c(N2CCN(C)CC2)nc2ccccc21 | 13 | > 0.05
38 | CCCN1CCN(c2nc3ccccc3n2CCOCC)CC1 | 16 | 0.021
39 | CCCCCN1CCCN(c2nc3ccccc3n2CCOCC)CC1 | 7.4 | > 0.05
40 | CCCCOCCn1c(N2CCCN(C)CC2)nc2ccccc21 | 10 | > 0.1
41 | CN1CCN(c2nc3ccccc3n2CCOc2ccccc2)CC1 | 6.9 | –
42 | C=CCOCCn1c(N2CCCN(C)CC2)nc2ccccc21 | 10 | –
43 | CCCCCn1c(N2CCN(C)CC2)nc2ccccc21 | 19 | 0.19
44 | CCOCCn1c(N2CCCN(C)CC2)nc2ccccc21 [EMEDASTINE] | 6.1 | 0.0044
45 | CCOCCn1c(N2CCN(CC)CC2)nc2ccccc21 | 18 | –
46 | CCCCCN1CCN(c2nc3ccccc3n2CCOCC)CC1 | 30 | > 0.1
47 | CCOCCn1c(N2CCN(C)CC2)nc2ccccc21 | 10 | –
48 | C#CCOCCn1c(N2CCN(C)CC2)nc2ccccc21 | 12 | –
49 | CN1CCN(c2nc3ccccc3n2Cc2ccccc2)CC1 | 17 | > 0.05
50 | CCCCCCCn1c(N2CCN(C)CC2)nc2ccccc21 | 150 | –
51 | CCCC(C)Cn1c(N2CCN(C)CC2)nc2ccccc21 (configuration not stated) | 1500 | –
52 | CCCCCCn1c(N2CCN(C)CC2)nc2ccccc21 | 26 | –
53 | C#CCOCCn1c(N2CCCN(C)CC2)nc2ccccc21 | 9.9 | –
